Assay type in all cases: in vivo
The subject of test [1] is giant foxtail (Setaria faberii). The test can be described thus: Test A preemergence. The conditions noted are these: Setaria faberi, pre-emergence, 240 h; for pest or weed control at 125 g/ha: 125 g ai/ha; for pest or weed control at 500 g/ha: 500 g ai/ha, visual injury rating about 10 d after treatment, 0 to 100 scale (0 no effect, 100 complete control). The method, boiled down:
(§1)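 Seeded soil received test chemicals as a preemergence directed spray, and seedlings at one to two leaves, 2–10 cm tall, received them postemergence, in a non-phytotoxic, surfactant-containing solvent mixture. Pots were held in a greenhouse for approximately 10 d, then rated for injury from 0, no effect, to 100, complete control.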

Test [2] concerns barnyardgrass (Echinochloa crus-galli). Description: Test A postemergence. The note with it: Echinochloa crus-galli, post-emergence, 240 h, read-out: Plant response rating, Barnyardgrass; for pest or weed control at 125 g/ha: 125 g ai/ha, Postemergence, visual injury after approximately 10 d, 0 to 100 scale where 0 is no effect and 100 is complete control. The essentials: as §1
The test system of test [3] is giant foxtail (Setaria faberii). The test can be described thus: Test A postemergence. The conditions noted are these: Setaria faberi, post-emergence, 240 h; for pest or weed control at 125 g/ha: 125 g ai/ha. The essentials:
as §1

For test [4], the system named is ryegrass, Italian (Italian ryegrass, Lolium multiflorum). The test can be described thus: Test A postemergence. The conditions noted are these: Lolium multiflorum, post-emergence, 240 h; for pest or weed control at 125 g/ha: 125 g ai/ha. The method, boiled down:
as §1

Test [5] relates to wheat (Triticum aestivum). The test can be described thus: Test A postemergence. The note with it: Triticum aestivum, post-emergence, 240 h; for plant injury at 125 g/ha: 125 g ai/ha. The method, boiled down:
as §1

The test system of test [6] is Kochia (Kochia scoparia). The test can be described thus: Test A postemergence. The conditions noted are these: Bassia scoparia, post-emergence, 240 h; for pest or weed control at 125 g/ha: 125 g ai/ha. The essentials:
as §1

For test [7], the system named is pigweed (Amaranthus retroflexus). The test can be described thus: Test A postemergence. The conditions noted are these: Amaranthus retroflexus, post-emergence, 240 h; for pest or weed control at 125 g/ha: 125 g ai/ha. The essentials: as §1
Test [8] relates to ragweed (common ragweed, Ambrosia elatior). The test can be described thus: Test A postemergence. The note with it: Ambrosia artemisiifolia, post-emergence, 240 h; for pest or weed control at 125 g/ha: 125 g ai/ha. The essentials: as §1
In test [9] the test system is blackgrass (Alopecurus myosuroides). The test can be described thus: Test A postemergence. The note with it: Alopecurus myosuroides, post-emergence, 240 h, read-out: Plant response rating, Blackgrass; for pest or weed control at 125 g/ha: 125 g ai/ha, Postemergence, visual injury after approximately 10 d, 0 to 100 scale where 0 is no effect and 100 is complete control. The method, boiled down:
as §1

For test [10], the system named is corn (Zea mays). The test can be described thus: Test A postemergence. The conditions noted are these: Zea mays, post-emergence, 240 h; for Corn plant response rating (crop injury, 0 = no effect, 100 = complete kill) at 125 g/ha: 125 g ai/ha, Postemergence, visual injury after approximately 10 d, 0 to 100 scale where 0 is no effect and 100 is complete control. The essentials:
as §1

Test [11] has as its system Galium (catchweed bedstraw, Galium aparine). The test can be described thus: Test A postemergence. The note with it: Galium, post-emergence, 240 h; for pest or weed control at 125 g/ha: 125 g ai/ha. The method, boiled down:
as §1

Test [12] concerns barnyardgrass (Echinochloa crus-galli). Description: Test B flooded paddy test. The note with it: Echinochloa crus-galli, 250 g ai/ha, Flood, read-out: Barnyardgrass plant response rating. The essentials:
(§2)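 Greenhouse paddy pots with 2-leaf stage plants received compound by direct addition to floodwater 3 cm deep, kept at that level. Scored visually at 13–15 d versus controls (0 no effect; 100 complete control).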

For test [13], the system named is ducksalad (Heteranthera limosa). The test can be described thus: Test B flooded paddy test. The conditions noted are these: Heteranthera limosa, 250 g ai/ha, Flood, read-out: Ducksalad plant response rating. The method, boiled down: as §2
Test [14] relates to rice (Oryra sativa). The test can be described thus: Test B flooded paddy test. The note with it: Oryza sativa, 250 g ai/ha, Flood, read-out: Rice plant response rating. The essentials: as §2
Test [15] concerns sedge, umbrella (small-flower umbrella sedge, Cyperus difformis). Description: Test B flooded paddy test. The note with it: Cyperus difformis, 250 g ai/ha, Flood, read-out: Sedge, Umbrella plant response rating. The method, boiled down: as §2
[16] abbreviates: preemergence, read-out: Foxtail, Giant plant response rating.
Where [17] appears, read: 500 g ai/ha, postemergence, visual injury, 0 to 100 scale (0 no effect, 100 complete control), approx. 10 d.
[18] abbreviates: 0 to 100 scale where 0 is no effect and 100 is complete control.
[19] abbreviates: scale of 0 to 100 where 0 is no effect and 100 is complete control.

The source of these data is US12077503B2, “Substituted cyclic amides and their use as herbicides” (FMC CORPORATION, priority 2015, dated 2024).

Where two headings read alike, the source gives them in different places.

On to `CC(C)COc1cccc([C@H]2CN(C)C(=O)[C@@H]2C(=O)Nc2ccc(F)cc2F)c1` [Compound 1030], for which the pest or weed control at 125 g/ha in test [1] (Preemergence, visual injury rating after approximately 10 d, read-out: Foxtail, Giant plant response rating (0 to 100 scale, 0 is no effect, 100 is complete control)) is 90%; in test [2], 70%; in [3] (postemergence, visual injury on 0 to 100 scale (0 no effect, 100 complete control), approx. 10 d, read-out: Foxtail, Giant plant response rating), 70%; in [4] (postemergence, visual injury on 0 to 100 scale (0 no effect, 100 complete control), approx. 10 d, read-out: Ryegrass, Italian plant response rating), 0%; in [6] (postemergence, visual injury on 0 to 100 scale (0 no effect, 100 complete control), approx. 10 d, read-out: Kochia plant response rating) it was 0%; in [7] (postemergence, visual injury on 0 to 100 scale (0 no effect, 100 complete control), approx. 10 d, read-out: Pigweed plant response rating) it was 0%. Besides, the pest or weed control at 125 g/ha in test [8] (postemergence, visual injury on 0 to 100 scale (0 no effect, 100 complete control), approx. 10 d, read-out: Ragweed plant response rating) amounted to 0%; in [9], 0%; in test [11] (postemergence, visual injury on 0 to 100 scale (0 no effect, 100 complete control), approx. 10 d, read-out: Galium plant response rating), 40%. In addition, the pest or weed control at 500 g/ha in test [1] (setting [16]) is 90%; in test [2] (setting [17]), 90%; in test [3] (500 g ai/ha, postemergence, visual injury, 0 to 100 scale (0 no effect, 100 complete control), approx. 10 d, read-out: Plant response rating, Foxtail, Giant) it was 90%; in test [4] (500 g ai/ha, postemergence, visual injury, 0 to 100 scale (0 no effect, 100 complete control), approx. 10 d, read-out: Plant response rating, Ryegrass, Italian), 0%; in test [6] (500 g ai/ha, postemergence, visual injury, 0 to 100 scale (0 no effect, 100 complete control), approx. 10 d, read-out: Plant response rating, Kochia) it was 0%; in [7] (500 g ai/ha, postemergence, visual injury, 0 to 100 scale (0 no effect, 100 complete control), approx. 10 d, read-out: Plant response rating, Pigweed) it was 0%. The pest or weed control at 500 g/ha in test [8] (500 g ai/ha, postemergence, visual injury, 0 to 100 scale (0 no effect, 100 complete control), approx. 10 d, read-out: Plant response rating, Ragweed) stood at 0%; in test [9] (setting [17]) it was 60%; in test [11] (500 g ai/ha, postemergence, visual injury, 0 to 100 scale (0 no effect, 100 complete control), approx. 10 d, read-out: Plant response rating, Galium) it was 60%. Besides, the plant injury at 125 g/ha in test [5] (postemergence, visual injury on 0 to 100 scale (0 no effect, 100 complete control), approx. 10 d, read-out: Wheat plant response rating) is 30%. Besides, in [5] (500 g ai/ha, postemergence, visual injury, 0 to 100 scale (0 no effect, 100 complete control), approx. 10 d, read-out: Plant response rating, Wheat), the plant injury at 500 g/ha was 60%. The Corn plant response rating (crop injury, 0 = no effect, 100 = complete kill) at 125 g/ha in test [10] stood at 20%. In addition, in test [10] (setting [17]), the Corn plant response rating (crop injury, 0 = no effect, 100 = complete kill) at 500 g/ha amounted to 50%. The pest or weed control at 250 g/ha stood at 30% in test [12] (setting [18]), 70% in [13] (setting [18]), 0% in test [14] (setting [18]) and 0% in test [15] (setting [18]).

On to `Cc1cc([C@H]2CN(C)C(=O)[C@@H]2C(=O)Nc2ccccc2F)ccc1Cl` [Compound 928], for which the pest or weed control at 125 g/ha was determined as 90% in test [1] (preemergence, 0 to 100 scale where 0 is no effect and 100 is complete control, read-out: Foxtail, Giant plant response rating); 90% in test [2]; 90% in [3] (Postemergence, visual injury after approximately 10 d, 0 to 100 scale where 0 is no effect and 100 is complete control, read-out: Plant response rating, Foxtail, Giant); 50% in test [4] (Postemergence, visual injury after approximately 10 d, 0 to 100 scale where 0 is no effect and 100 is complete control, read-out: Plant response rating, Ryegrass, Italian); 40% in [6] (Postemergence, visual injury after approximately 10 d, 0 to 100 scale where 0 is no effect and 100 is complete control, read-out: Plant response rating, Kochia); 20% in test [7] (Postemergence, visual injury after approximately 10 d, 0 to 100 scale where 0 is no effect and 100 is complete control, read-out: Plant response rating, Pigweed). The pest or weed control at 125 g/ha came out at 0% in [8] (Postemergence, visual injury after approximately 10 d, 0 to 100 scale where 0 is no effect and 100 is complete control, read-out: Plant response rating, Ragweed); 30% in [9]; 50% in [11] (Postemergence, visual injury after approximately 10 d, 0 to 100 scale where 0 is no effect and 100 is complete control, read-out: Plant response rating, Galium). The pest or weed control at 500 g/ha in test [1] (setting [16]) was determined as 90%. Besides, the plant injury at 125 g/ha in test [5] (Postemergence, visual injury after approximately 10 d, 0 to 100 scale where 0 is no effect and 100 is complete control, read-out: Plant response rating, Wheat) turned out to be 40%. This compound also yielded a Corn plant response rating (crop injury, 0 = no effect, 100 = complete kill) at 125 g/ha in test [10] of 40%. The pest or weed control at 250 g/ha in test [12] (setting [19]) is 55%; in test [13] (setting [19]), 80%; in [14] (setting [19]) it was 0%; in test [15] (setting [19]), 0%.
